Experimental data reported in ChEMBL document CHEMBL3627714, “Development of a novel class of potent and selective FIXa inhibitors” (Bioorg Med Chem Lett, 2015).
Each block holds one compound with its values, some of them ahead of it.

What was measured:
Coagulation factor IX = Coagulation factor IX (Homo sapiens, UniProt P00740); assay: Inhibition of human coagulation factor 9a using fluorescent peptide CH3SO2-D-CHG-Gly-Arg-AFC-AcoH as substrate
Coagulation factor X = Coagulation factor X (Homo sapiens, UniProt P00742); assay: Inhibition of human coagulation factor 10a using fluorescent peptide nAcetyl-KPR-AFC as substrate
Sequence of Coagulation factor X (P00742 41-179 limits assumed): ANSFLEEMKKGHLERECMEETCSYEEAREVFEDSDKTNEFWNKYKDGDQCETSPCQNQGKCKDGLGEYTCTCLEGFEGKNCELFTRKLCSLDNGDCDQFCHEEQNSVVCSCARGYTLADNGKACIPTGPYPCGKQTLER
Sequence of Coagulation factor X (P00742 235-488 limits assumed): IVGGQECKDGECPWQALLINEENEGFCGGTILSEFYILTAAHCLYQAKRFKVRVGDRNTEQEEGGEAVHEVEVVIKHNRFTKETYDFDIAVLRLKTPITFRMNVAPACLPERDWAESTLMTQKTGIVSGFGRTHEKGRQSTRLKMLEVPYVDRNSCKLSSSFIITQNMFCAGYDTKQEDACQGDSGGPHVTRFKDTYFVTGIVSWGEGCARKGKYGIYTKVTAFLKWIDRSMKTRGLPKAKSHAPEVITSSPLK

[1] = Oral bioavailability in rat at 2 mg/kg; format: ADME, organism-based; details: in vivo
Rattus norvegicus = assay: Dose normalized AUC in rat at 2 mg/kg, po; format: ADME, organism-based; details: in vivo
[2] = molecular target: Voltage-gated inwardly rectifying potassium channel KCNH2 (Homo sapiens, UniProt Q12809)
Sequence of Voltage-gated inwardly rectifying potassium channel KCNH2 (Q12809 whole entry): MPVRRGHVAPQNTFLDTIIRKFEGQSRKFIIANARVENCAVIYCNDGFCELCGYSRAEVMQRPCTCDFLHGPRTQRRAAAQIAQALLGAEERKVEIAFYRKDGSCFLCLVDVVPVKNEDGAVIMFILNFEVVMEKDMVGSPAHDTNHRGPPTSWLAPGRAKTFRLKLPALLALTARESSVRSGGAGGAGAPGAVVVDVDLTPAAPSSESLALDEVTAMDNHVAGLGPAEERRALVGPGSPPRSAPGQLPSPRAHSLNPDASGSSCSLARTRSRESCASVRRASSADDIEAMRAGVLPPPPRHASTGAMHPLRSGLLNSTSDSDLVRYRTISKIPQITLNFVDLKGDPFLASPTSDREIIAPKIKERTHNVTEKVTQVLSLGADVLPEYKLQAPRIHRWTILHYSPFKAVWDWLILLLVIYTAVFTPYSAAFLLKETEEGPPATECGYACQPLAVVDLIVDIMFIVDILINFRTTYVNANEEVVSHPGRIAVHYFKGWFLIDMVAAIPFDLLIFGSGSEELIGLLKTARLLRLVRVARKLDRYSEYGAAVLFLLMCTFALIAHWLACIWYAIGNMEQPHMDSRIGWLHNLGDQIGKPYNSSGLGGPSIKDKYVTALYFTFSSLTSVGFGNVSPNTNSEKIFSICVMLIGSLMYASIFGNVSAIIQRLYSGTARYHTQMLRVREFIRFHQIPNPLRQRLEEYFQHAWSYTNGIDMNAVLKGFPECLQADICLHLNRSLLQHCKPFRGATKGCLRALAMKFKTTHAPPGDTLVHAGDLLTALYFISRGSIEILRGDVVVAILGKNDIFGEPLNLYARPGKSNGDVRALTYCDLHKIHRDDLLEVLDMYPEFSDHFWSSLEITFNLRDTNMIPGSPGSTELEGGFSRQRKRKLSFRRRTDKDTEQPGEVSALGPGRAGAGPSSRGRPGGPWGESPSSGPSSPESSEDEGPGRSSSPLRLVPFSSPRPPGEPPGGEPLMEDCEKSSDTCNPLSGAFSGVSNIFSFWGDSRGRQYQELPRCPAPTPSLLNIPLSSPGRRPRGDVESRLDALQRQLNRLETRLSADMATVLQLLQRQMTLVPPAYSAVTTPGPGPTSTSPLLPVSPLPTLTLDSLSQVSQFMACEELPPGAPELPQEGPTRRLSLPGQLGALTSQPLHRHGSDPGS

Cytochrome P450 2D6 = Cytochrome P450 2D6 (Homo sapiens, UniProt P10635); assay: Inhibition of CYP2D6 (unknown origin); format: ADME
Sequence of Cytochrome P450 2D6 (P10635 whole entry): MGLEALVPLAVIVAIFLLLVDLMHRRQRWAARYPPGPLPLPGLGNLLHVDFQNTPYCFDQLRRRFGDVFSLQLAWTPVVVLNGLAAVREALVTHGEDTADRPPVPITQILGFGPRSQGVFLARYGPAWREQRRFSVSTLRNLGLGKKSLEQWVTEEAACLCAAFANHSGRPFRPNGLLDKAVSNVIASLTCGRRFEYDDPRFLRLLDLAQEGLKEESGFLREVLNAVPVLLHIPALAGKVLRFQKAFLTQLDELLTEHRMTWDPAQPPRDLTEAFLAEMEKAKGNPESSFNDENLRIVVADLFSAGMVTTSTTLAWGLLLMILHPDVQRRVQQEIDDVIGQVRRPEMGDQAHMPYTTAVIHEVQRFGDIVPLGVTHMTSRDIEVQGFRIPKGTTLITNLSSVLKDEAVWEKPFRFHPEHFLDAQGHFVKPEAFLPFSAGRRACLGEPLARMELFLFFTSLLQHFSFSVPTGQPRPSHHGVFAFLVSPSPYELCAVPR

[3] = Clearance in rat at 2 mg/kg, po and 0.5 mg/kg, iv; format: ADME, organism-based; details: in vivo
Cytochrome P450 2C8 = molecular target: T1, Cytochrome P450 2C8 (Homo sapiens, UniProt P10632); assay: Inhibition of CYP2C8 (unknown origin); format: ADME
T1 sequence (P10632 whole entry): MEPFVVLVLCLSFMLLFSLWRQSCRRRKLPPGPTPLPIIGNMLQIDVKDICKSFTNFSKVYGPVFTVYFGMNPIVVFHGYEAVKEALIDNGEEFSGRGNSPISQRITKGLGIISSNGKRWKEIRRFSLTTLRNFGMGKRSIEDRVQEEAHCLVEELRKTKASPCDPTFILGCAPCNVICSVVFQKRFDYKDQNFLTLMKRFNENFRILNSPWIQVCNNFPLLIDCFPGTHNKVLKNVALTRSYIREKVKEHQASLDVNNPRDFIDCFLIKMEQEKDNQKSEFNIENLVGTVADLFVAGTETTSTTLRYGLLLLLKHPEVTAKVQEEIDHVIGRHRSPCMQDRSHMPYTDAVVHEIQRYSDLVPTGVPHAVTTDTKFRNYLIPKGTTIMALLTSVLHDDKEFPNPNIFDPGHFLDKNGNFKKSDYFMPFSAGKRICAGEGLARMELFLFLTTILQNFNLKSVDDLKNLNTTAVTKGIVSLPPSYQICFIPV

[4] = Half life in rat at 2 mg/kg, po and 0.5 mg/kg, iv; format: ADME, organism-based; details: in vivo
Cytochrome P450 2C9 = Cytochrome P450 2C9 (Homo sapiens, UniProt P11712); assay: Inhibition of CYP2C9 (unknown origin); format: ADME
Sequence of Cytochrome P450 2C9 (P11712 whole entry): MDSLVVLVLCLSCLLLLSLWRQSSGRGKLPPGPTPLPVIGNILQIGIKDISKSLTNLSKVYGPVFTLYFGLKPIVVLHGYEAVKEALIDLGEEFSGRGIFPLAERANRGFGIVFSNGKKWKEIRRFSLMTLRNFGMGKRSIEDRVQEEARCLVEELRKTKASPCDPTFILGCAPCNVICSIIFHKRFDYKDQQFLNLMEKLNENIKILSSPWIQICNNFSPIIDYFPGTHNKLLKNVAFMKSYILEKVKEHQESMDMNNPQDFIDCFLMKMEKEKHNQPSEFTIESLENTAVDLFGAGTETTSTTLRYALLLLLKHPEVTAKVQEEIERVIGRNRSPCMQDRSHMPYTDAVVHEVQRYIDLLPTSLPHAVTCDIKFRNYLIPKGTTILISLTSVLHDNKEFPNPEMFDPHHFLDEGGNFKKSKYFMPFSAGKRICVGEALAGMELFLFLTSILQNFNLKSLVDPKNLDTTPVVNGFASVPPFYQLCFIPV

Cytochrome P450 3A4 = Cytochrome P450 3A4 (Homo sapiens, UniProt P08684); assay: Inhibition of CYP3A4 (unknown origin); format: ADME
Sequence of Cytochrome P450 3A4 (P08684 whole entry): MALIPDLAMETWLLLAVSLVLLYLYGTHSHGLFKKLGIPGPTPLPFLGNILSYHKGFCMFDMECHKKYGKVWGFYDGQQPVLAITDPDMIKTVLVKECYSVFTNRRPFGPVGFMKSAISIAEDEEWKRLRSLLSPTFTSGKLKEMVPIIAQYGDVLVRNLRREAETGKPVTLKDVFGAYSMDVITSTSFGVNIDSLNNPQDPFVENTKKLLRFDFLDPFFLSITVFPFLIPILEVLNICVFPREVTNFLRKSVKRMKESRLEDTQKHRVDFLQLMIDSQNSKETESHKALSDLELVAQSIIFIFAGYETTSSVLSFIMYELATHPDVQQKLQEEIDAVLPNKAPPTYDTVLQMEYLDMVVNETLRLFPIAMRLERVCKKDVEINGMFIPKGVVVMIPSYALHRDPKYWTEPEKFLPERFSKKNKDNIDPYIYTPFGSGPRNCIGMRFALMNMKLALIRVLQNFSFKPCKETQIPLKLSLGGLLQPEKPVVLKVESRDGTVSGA

Plasma [5] = assay: Anticoagulant activity in 0.3 pM recombinant coagulation factor 11a stimulated human CTI-citrated plasma assessed as inhibition of thrombin generation incubated for 5 mins by calibrated automated thrombogram analysis; format: functional, cell-free
Plasma [6] = assay: Anticoagulant activity in 1 pM tissue factor stimulated human CTI-citrated plasma assessed as inhibition of thrombin generation incubated for 5 mins by calibrated automated thrombogram analysis; format: functional, cell-free
Plasma [7] = assay: Anticoagulant activity in 3 pM tissue factor stimulated human CTI-citrated plasma assessed as inhibition of thrombin generation incubated for 5 mins by calibrated automated thrombogram analysis; format: functional, cell-free
Plasma [8] = assay: Anticoagulant activity in 1 pM recombinant coagulation factor 11a stimulated human CTI-citrated plasma assessed as inhibition of thrombin generation incubated for 5 mins by calibrated automated thrombogram analysis; format: functional, cell-free
Plasma [9] = assay: Anticoagulant activity in 3 pM recombinant coagulation factor 11a stimulated human CTI-citrated plasma assessed as inhibition of thrombin generation incubated for 5 mins by calibrated automated thrombogram analysis; format: functional, cell-free
Plasma [10] = assay: Anticoagulant activity in 10 pM recombinant coagulation factor 11a stimulated human CTI-citrated plasma assessed as inhibition of thrombin generation incubated for 5 mins by calibrated automated thrombogram analysis; format: functional, cell-free
Plasma [11] = assay: Anticoagulant activity in 10 pM tissue factor stimulated human CTI-citrated plasma assessed as inhibition of thrombin generation incubated for 5 mins by calibrated automated thrombogram analysis; format: functional, cell-free
Plasma [12] = assay: Anticoagulant activity in 0.1 pM recombinant coagulation factor 11a stimulated human CTI-citrated plasma assessed as inhibition of thrombin generation incubated for 5 mins by calibrated automated thrombogram analysis; format: functional, cell-free
Plasma [13] = assay: Anticoagulant activity in 0.3 pM tissue factor stimulated human CTI-citrated plasma assessed as inhibition of thrombin generation incubated for 5 mins by calibrated automated thrombogram analysis; format: functional, cell-free
Plasma [14] = assay: Anticoagulant activity in 20 pM tissue factor stimulated human CTI-citrated plasma assessed as inhibition of thrombin generation incubated for 5 mins by calibrated automated thrombogram analysis; format: functional, cell-free

Sequence of Coagulation factor IX (P00740 47-191 limits assumed): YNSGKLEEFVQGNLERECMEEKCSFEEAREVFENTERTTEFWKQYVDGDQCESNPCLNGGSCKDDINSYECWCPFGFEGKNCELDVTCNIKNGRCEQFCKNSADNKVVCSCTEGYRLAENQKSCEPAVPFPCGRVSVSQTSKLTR
Sequence of Coagulation factor IX (P00740 227-461 limits assumed): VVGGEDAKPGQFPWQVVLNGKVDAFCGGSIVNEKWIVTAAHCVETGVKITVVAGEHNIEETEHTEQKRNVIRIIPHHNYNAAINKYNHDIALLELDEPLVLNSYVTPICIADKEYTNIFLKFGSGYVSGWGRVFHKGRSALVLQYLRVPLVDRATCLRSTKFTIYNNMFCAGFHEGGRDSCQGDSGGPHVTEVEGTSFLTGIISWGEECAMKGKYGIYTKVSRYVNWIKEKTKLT

SMILES: Cc1cc2nc([C@@H](CNC(=O)c3c(F)cc(-n4cnnc4)cc3Cl)c3ccccc3)[nH]c2cc1C
Ki (Coagulation factor IX): 0.0152 µM
Ki (Coagulation factor X): 0.544 µM

SMILES: Cc1cc2nc([C@@H](CNC(=O)c3ccc(-n4cnnc4)cc3Cl)c3cccnc3)[nH]c2cc1C
Ki (Coagulation factor IX): 0.0154 µM
Ki (Coagulation factor X): 1.6 µM

SMILES: Cc1cc2nc([C@@H](CNC(=O)c3ccc(-n4cnnc4)cc3Cl)c3ccccc3F)[nH]c2cc1C
Ki (Coagulation factor IX): 0.0193 µM
Ki (Coagulation factor X): 0.412 µM

SMILES: Cc1cc2nc([C@@H](CNC(=O)c3c(Cl)cc(-n4cnnc4)cc3C(F)(F)F)c3ccccc3)[nH]c2cc1C
Ki (Coagulation factor IX): 0.0218 µM
Ki (Coagulation factor X): 0.34 µM

SMILES: COc1cc(-n2cnnc2)cc(Cl)c1C(=O)NC[C@@H](c1ccccc1)c1nc2cc(C)c(C)cc2[nH]1
Ki (Coagulation factor IX): 0.0148 µM
Ki (Coagulation factor X): 0.245 µM

SMILES: Cc1ncn(-c2cc(Cl)c(C(=O)NC[C@@H](c3cccc(F)c3)c3nc4cc(C)c(Cl)cc4[nH]3)c(Cl)c2)n1
Ki (Coagulation factor IX): 0.0136 µM
Ki (Coagulation factor X): 15.2 µM

SMILES: Cc1ncn(-c2cc(Cl)c(C(=O)NC[C@@H](c3ccccc3)c3nc4cc(C)c(C)cc4[nH]3)c(Cl)c2)n1
Ki (Coagulation factor IX): 0.0208 µM
Ki (Coagulation factor X): 2.47 µM

SMILES: COc1ccc(-n2nc(C(N)=O)c3c2C(=O)N(c2ccc(N4CCCCC4=O)cc2)CC3)cc1 [APIXABAN]
IC50 (Plasma [5]): 0.116 µM
IC50 (Plasma [6]): 0.0337 µM
IC50 (Plasma [7]): 0.0484 µM
IC50 (Plasma [8]): 0.191 µM
IC50 (Plasma [9]): 0.747 µM
IC50 (Plasma [10]): 2.41 µM
IC50 (Plasma [11]): 0.159 µM
IC50 (Plasma [12]): 0.0513 µM
IC50 (Plasma [13]): 0.0476 µM
IC50 (Plasma [14]): 0.299 µM

Further compounds by falling Ki (Coagulation factor IX), results first:

Ki (Coagulation factor IX): 0.0104 µM
Ki (Coagulation factor X): > 28.9 µM
SMILES: Cc1ncn(-c2cc(Cl)c(C(=O)NC[C@@H](c3cccc(F)c3)c3ccc4c(C)ccc(F)c4n3)c(Cl)c2)n1

bioavailability [1]: 48.2%
AUC/dose (Rattus norvegicus): 1.74 µM·h/mg/kg
IC50 (Cytochrome P450 2D6): 30.4 µM
Ki (Coagulation factor IX): 0.0098 µM
clearance [3]: 8.77 mL/min/kg
IC50 (Cytochrome P450 2C8): 5.28 µM
Ki (Coagulation factor X): 20.7 µM
half-life [4]: 0.8 h
IC50 (Cytochrome P450 2C9): 19.8 µM
IC50 (Cytochrome P450 3A4): > 50 µM
SMILES: Cc1ncn(-c2cc(Cl)c(C(=O)NC[C@@H](c3cccc(F)c3)c3nc4ccc(Cl)cc4[nH]3)c(Cl)c2)n1

bioavailability [1]: 11.1%
AUC/dose (Rattus norvegicus): 0.097 µM·h/mg/kg
IC50 (Plasma [5]): 1.6 µM
IC50 (Plasma [6]): 1.16 µM
IC50 (Cytochrome P450 2D6): 31.6 µM
IC50 (Plasma [7]): 0.953 µM
IC50 (Plasma [8]): 2.52 µM
Ki (Coagulation factor IX): 0.0091 µM
IC50 (Plasma [9]): 7.16 µM
clearance [3]: 36.5 mL/min/kg
IC50 (Cytochrome P450 2C8): 1.57 µM
IC50 (Plasma [10]): 22.4 µM
IC50 (Plasma [11]): 1.85 µM
Ki (Coagulation factor X): 2.8 µM
half-life [4]: 1.24 h
IC50 (Plasma [12]): 0.303 µM
IC50 (Plasma [13]): 1.64 µM
IC50 (Plasma [14]): 1.9 µM
IC50 (Cytochrome P450 2C9): 24.9 µM
IC50 (Cytochrome P450 3A4): > 50 µM
SMILES: Cc1ncn(-c2cc(Cl)c(C(=O)NC[C@@H](c3cccc(F)c3)c3ccc4[nH]c(C)nc4c3)c(Cl)c2)n1
IC50 [2]: 19.9 µM

Ki (Coagulation factor IX): 0.0084 µM
Ki (Coagulation factor X): 1.51 µM
SMILES: Cc1cc2nc([C@@H](CNC(=O)c3ccc(-n4cnnc4)cc3Cl)c3ccc(F)cc3)[nH]c2cc1C

Ki (Coagulation factor IX): 0.008 µM
Ki (Coagulation factor X): 0.195 µM
SMILES: Cc1cc2nc([C@@H](CNC(=O)c3c(C)cc(-n4cnnc4)cc3Cl)c3ccccc3)[nH]c2cc1C

bioavailability [1]: 57.3%
AUC/dose (Rattus norvegicus): 4.36 µM·h/mg/kg
IC50 (Cytochrome P450 2D6): > 50 µM
Ki (Coagulation factor IX): 0.0062 µM
clearance [3]: 3.84 mL/min/kg
IC50 (Cytochrome P450 2C8): 4.04 µM
Ki (Coagulation factor X): > 28.9 µM
half-life [4]: 1.66 h
IC50 (Cytochrome P450 2C9): 22.4 µM
IC50 (Cytochrome P450 3A4): > 50 µM
SMILES: Cc1ncn(-c2cc(Cl)c(C(=O)NC[C@@H](c3cccc(F)c3)c3nc4c(C)cc(Cl)cc4[nH]3)c(Cl)c2)n1
IC50 [2]: 3.05 µM

Ki (Coagulation factor IX): 0.0057 µM
Ki (Coagulation factor X): 1.01 µM
SMILES: Cc1cc2nc([C@@H](CNC(=O)c3ccc(-n4cnnc4)cc3Cl)c3cccc(F)c3)[nH]c2cc1C

Ki (Coagulation factor IX): 0.0037 µM
Ki (Coagulation factor X): > 28.9 µM
SMILES: Cc1ncn(-c2cc(Cl)c(C(=O)NC[C@@H](c3cccc(F)c3)c3cnc4[nH]c(C)cc4c3)c(Cl)c2)n1

Ki (Coagulation factor IX): 0.0036 µM
Ki (Coagulation factor X): 0.105 µM
SMILES: Cc1cc2nc([C@@H](CNC(=O)c3c(Cl)cc(-n4cnnc4)cc3Cl)c3ccccc3)[nH]c2cc1C

Ki (Coagulation factor IX): 0.0033 µM
Ki (Coagulation factor X): > 28.9 µM
SMILES: Cc1ncn(-c2cc(Cl)c(C(=O)NC[C@@H](c3cccc(F)c3)c3cc(=O)c4c(C)ccc(F)c4[nH]3)c(Cl)c2)n1

bioavailability [1]: 7.89%
AUC/dose (Rattus norvegicus): 0.056 µM·h/mg/kg
IC50 (Cytochrome P450 2D6): > 50 µM
Ki (Coagulation factor IX): 0.0029 µM
clearance [3]: 42.1 mL/min/kg
IC50 (Cytochrome P450 2C8): 0.456 µM
Ki (Coagulation factor X): 1.93 µM
half-life [4]: 1.03 h
IC50 (Cytochrome P450 2C9): 9.09 µM
IC50 (Cytochrome P450 3A4): 33.3 µM
SMILES: COc1cc2nc([C@@H](CNC(=O)c3c(Cl)cc(-n4cnc(C)n4)cc3Cl)c3cccc(F)c3)[nH]c2cc1Cl
IC50 [2]: 10.9 µM

bioavailability [1]: 14.1%
AUC/dose (Rattus norvegicus): 0.284 µM·h/mg/kg
IC50 (Cytochrome P450 2D6): > 50 µM
Ki (Coagulation factor IX): 0.001 µM
clearance [3]: 15.5 mL/min/kg
IC50 (Cytochrome P450 2C8): 24.4 µM
Ki (Coagulation factor X): > 28.9 µM
half-life [4]: 1.12 h
IC50 (Cytochrome P450 2C9): 42.8 µM
IC50 (Cytochrome P450 3A4): > 50 µM
SMILES: Cc1ncn(-c2cc(Cl)c(C(=O)NC[C@@H](c3cccc(F)c3)c3nc4c(F)ccc(C)c4c(=O)[nH]3)c(Cl)c2)n1
IC50 [2]: > 60 µM
